Data from US20260318918A1, “CANCER DIAGNOSTICS AND TREATMENT BY MEANS OF PRMT5 INHIBITOR” (ARGONAUT THERAPEUTICS LIMITED, priority 2022, published 2026).

Key:
Assay type in all cases: cell-based
[1] = tested on: T-47D cell line (breast cancer); experiment: MTT cell viability assay, T-47D (breast cancer), CRISPR knock-out; conditions: 8 days; for sensitivity to PRMT5 inhibition (cell viability) of cells lacking E2F1: E2F1 deleted by CRISPR; for sensitivity to PRMT5 inhibition (cell viability) of cells lacking pRb: pRb deleted by CRISPR
Method: (§1) T-47D cells were maintained in growth medium (RPMI 1640 supplemented with 10% v/v heat inactivated fetal bovine serum and cultured at 37° C., 5% CO2, U2OS, MCF7 and HCT116 cells were maintained in growth medium (DMEM supplemented with 10% v/v heat inactivated fetal bovine serum) and cultured at 37° C., 5% CO2. Under assay conditions, cells were incubated in assay medium (RPMI 1640 or […] supplemented with 10% v/v heat inactivated fetal bovine serum and 100 units/mL penicillin-streptomycin) at 37° C. under 5% CO2. For the assessment of the effect of compounds on the proliferation of the cancer cell lines, exponentially growing cells were plated into 96-well plates overnight at a density of 1,000 cells/well in a final volume of 100 μl of cell growth medium. The next day the cells were dosed with compounds (T-992, GSK3326595, LLY-283, PF-06939999 and JNJ64619178) (quadruplicate ten-point 5-fold serial dilutions in DMSO), beginning at 100 μM. After addition of compounds, assay plates were incubated for 8 days at 37° C., 5% CO2, relative humidity 90%. NAD(P)H-dependent cellular oxidoreductase enzyme activity was measured by adding 100 μl thiazolyl blue tetrazolium bromide (MTT: Sigma-Aldrich) to the wells at a final concentration of 5 μM and incubated for 2 h at 37° C. Next, media was discarded from the wells and the formazan crystals were dissolved in 100 μl DMSO by shaking for 15 min. Absorbance was read on the Omega FLUOstar plate reader (BMG Labtech Ltd, Ortenberg, Germany) at a wavelength of 584 nm. Data were analysed and IC50 values determined using MARs data analysis software (BMG Labtech Ltd, Ortenberg, Germany). The concentration of compound inhibiting cell viability by 50% was determined using a 4-parametric fit of the normalized dose response curves.
(§2) pSpCas9(BB)-2A-Puro (Addgene plasmid ID: 48139) was used for the generation of E2F1 and pRb knock out cell lines using CRISPR-Cas9 technology. Cell lines were generated as detailed in (Ran et al., 2013).

[2] = tested on: HCT116 cell line (colorectal cancer); experiment: MTT cell viability assay, HCT116 (colorectal cancer), CRISPR knock-out; conditions: E2F1 deleted by CRISPR, 8 days
Method: as §1, §2

[3] = tested on: U20S cell line (bone cancer); experiment: MTT cell viability assay, U20S (bone cancer), CRISPR knock-out; conditions: pRb deleted by CRISPR, 8 days
Method: as §1, with “The next day the cells were dosed with compounds (T-992, GSK3326595, LLY-283, PF-06939999 and JNJ64619178) (quadruplicate ten-point 5-fold serial dilutions in DMSO), beginning at 100 μM. After addition of compounds, assay plates were incubated for 8 days at 37° C., 5% CO2, relative humidity 90%.” left out, “Next, media was discarded from the wells and the formazan crystals were dissolved in 100 μl DMSO by shaking for 15 min.” left out, “curves. […]” for “curves.”

SMILES | sensitivity to PRMT5 inhibition (cell viability) of cells lacking E2F1 [1] | sensitivity to PRMT5 inhibition (cell viability) of cells lacking pRb [1] | sensitivity to PRMT5 inhibition (cell viability) of cells lacking E2F1 [2] | sensitivity to PRMT5 inhibition (cell viability) of cells lacking pRb [3]
Cc1ncnc2c1ccn2[C@@H]1C[C@H](Oc2cc(C(F)F)c(F)c3c2CNCC3)[C@@H](O)[C@H]1O [PF06939999] | less sensitive | more sensitive | less sensitive | 
Nc1nc2cc(CC[C@H]3C[C@@H](n4ccc5c(N)ncnc54)[C@H](O)[C@@H]3O)ccc2cc1Br [JNJ64619178] | less sensitive |  | less sensitive | 
Nc1ncnc2c1ccn2[C@@H]1O[C@H]([C@H](O)c2ccccc2)[C@@H](O)[C@H]1O [LLY-283] | less sensitive |  | less sensitive | 
CC(=O)N1CCC(Nc2cc(C(=O)NC[C@H](O)CN3CCc4ccccc4C3)ncn2)CC1 [GSK3326595] | less sensitive | more sensitive | less sensitive | 
O[C@@H]1CO[C@H]2[C@@H]1OC[C@@H]2O [AT101] | less sensitive | more sensitive | less sensitive | more sensitive
